ChEMBL document CHEMBL1145498, “A systematic interaction map of validated kinase inhibitors with Ser/Thr kinases” (Proc Natl Acad Sci U S A, 2007)

Experiments:
[1] = biological target: Cyclin-dependent kinase 16 (Homo sapiens) (UniProt Q00536)
[2] = biological target: Serine/threonine-protein kinase PLK1 (Homo sapiens) (UniProt P53350)
[3] = biological target: T1, Serine/threonine-protein kinase Nek2 (Homo sapiens) (UniProt P51955)
T1 sequence (whole entry): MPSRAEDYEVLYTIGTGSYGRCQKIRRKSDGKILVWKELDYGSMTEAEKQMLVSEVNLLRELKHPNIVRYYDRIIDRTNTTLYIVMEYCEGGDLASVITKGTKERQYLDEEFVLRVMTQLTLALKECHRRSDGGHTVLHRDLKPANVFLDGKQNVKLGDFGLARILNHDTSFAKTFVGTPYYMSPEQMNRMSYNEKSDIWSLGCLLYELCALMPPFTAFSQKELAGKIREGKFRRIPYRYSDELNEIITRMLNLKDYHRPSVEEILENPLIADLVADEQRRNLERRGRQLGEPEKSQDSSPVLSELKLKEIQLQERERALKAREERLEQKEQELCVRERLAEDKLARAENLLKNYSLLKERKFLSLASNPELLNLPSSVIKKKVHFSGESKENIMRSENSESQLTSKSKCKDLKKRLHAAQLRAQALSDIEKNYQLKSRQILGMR

[4] = biological target: Calcium/calmodulin-dependent protein kinase type 1G (Homo sapiens) (UniProt Q96NX5)
[5] = biological target: Glycogen synthase kinase-3 beta (Homo sapiens, UniProt P49841)
[6] = biological target: Dual specificity mitogen-activated protein kinase kinase 2 (Homo sapiens, UniProt P36507)
[7] = biological target: T2, Myotonin-protein kinase (Homo sapiens) (UniProt Q09013)
T2 sequence (whole entry): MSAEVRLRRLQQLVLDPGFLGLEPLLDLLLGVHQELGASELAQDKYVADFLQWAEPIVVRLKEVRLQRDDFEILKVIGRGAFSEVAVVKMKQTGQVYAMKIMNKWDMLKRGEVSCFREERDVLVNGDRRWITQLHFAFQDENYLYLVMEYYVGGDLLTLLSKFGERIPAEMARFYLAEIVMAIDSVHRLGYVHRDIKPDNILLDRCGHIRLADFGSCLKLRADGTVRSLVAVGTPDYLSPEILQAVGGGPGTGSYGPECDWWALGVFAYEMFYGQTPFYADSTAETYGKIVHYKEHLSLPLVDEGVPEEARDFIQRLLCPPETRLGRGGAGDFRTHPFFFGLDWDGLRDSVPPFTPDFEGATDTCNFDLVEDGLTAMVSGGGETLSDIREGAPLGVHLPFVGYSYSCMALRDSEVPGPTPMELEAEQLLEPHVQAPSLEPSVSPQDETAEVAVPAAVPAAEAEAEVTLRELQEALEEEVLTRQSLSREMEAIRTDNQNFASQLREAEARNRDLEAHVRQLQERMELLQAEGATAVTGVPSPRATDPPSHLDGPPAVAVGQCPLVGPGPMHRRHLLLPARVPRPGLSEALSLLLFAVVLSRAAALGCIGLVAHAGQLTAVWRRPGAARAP

[8] = biological target: Serine/threonine-protein kinase 26 (Homo sapiens) (UniProt Q9P289)
[9] = biological target: Dual specificity protein kinase CLK2 (Homo sapiens) (UniProt P49760)
[10] = biological target: Serine/threonine-protein kinase 38 (Homo sapiens) (UniProt Q15208)
[11] = biological target: Calcium/calmodulin-dependent protein kinase kinase 2 (Homo sapiens, UniProt Q96RR4)
[12] = biological target: Dual specificity protein kinase CLK1 (Homo sapiens) (UniProt P49759)
[13] = biological target: Casein kinase I isoform gamma-1 (Homo sapiens) (UniProt Q9HCP0)
[14] = biological target: Serine/threonine-protein kinase Chk2 (Homo sapiens, UniProt O96017)
[15] = biological target: Ribosomal protein S6 kinase alpha-3 (Homo sapiens) (UniProt P51812)
[16] = biological target: Serine/threonine-protein kinase pim-1 (Homo sapiens) (UniProt P11309)
[17] = biological target: Calcium/calmodulin-dependent protein kinase type II subunit delta (Homo sapiens) (UniProt Q13557)
[18] = biological target: Casein kinase I isoform gamma-2 (Homo sapiens) (UniProt P78368)
[19] = biological target: STE20-like serine/threonine-protein kinase (Homo sapiens) (UniProt Q9H2G2)
[20] = biological target: Calcium/calmodulin-dependent protein kinase type 1D (Homo sapiens) (UniProt Q8IU85)
[21] = biological target: Serine/threonine-protein kinase pim-2 (Homo sapiens, UniProt Q9P1W9)
[22] = biological target: Cyclin-dependent kinase 6 (Homo sapiens) (UniProt Q00534)
[23] = biological target: T3, Lymphokine-activated killer T-cell-originated protein kinase (Homo sapiens) (UniProt Q96KB5)
T3 sequence (whole entry): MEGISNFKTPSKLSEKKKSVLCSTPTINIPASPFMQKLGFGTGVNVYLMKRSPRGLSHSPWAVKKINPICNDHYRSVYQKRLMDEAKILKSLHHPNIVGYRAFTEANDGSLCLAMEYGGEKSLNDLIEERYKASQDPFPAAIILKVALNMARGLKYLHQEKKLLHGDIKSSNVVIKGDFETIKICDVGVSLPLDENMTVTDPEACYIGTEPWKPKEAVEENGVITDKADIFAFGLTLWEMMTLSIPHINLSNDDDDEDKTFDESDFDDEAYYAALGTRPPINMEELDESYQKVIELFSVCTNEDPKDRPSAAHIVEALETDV

[24] = biological target: Dual specificity protein kinase CLK3 (Homo sapiens) (UniProt P49761)
[25] = biological target: Tyrosine-protein kinase JAK1 (Homo sapiens) (UniProt P23458)
[26] = biological target: Calcium/calmodulin-dependent protein kinase type II subunit alpha (Homo sapiens) (UniProt Q9UQM7)
Chain of Calcium/calmodulin-dependent protein kinase type II subunit alpha (Homo sapiens) (Q9UQM7 whole entry): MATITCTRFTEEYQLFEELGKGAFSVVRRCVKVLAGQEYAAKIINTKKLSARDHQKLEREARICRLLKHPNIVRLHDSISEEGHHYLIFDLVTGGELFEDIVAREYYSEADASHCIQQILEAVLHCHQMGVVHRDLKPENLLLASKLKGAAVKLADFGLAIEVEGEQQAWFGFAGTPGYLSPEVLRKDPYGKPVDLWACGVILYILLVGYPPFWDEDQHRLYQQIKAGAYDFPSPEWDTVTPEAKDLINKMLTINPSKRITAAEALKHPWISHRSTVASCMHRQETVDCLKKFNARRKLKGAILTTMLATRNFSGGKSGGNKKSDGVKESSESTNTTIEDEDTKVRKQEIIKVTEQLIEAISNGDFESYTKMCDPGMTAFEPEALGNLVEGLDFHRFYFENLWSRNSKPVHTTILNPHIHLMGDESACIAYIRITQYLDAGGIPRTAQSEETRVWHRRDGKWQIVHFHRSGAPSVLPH

Chain of Serine/threonine-protein kinase 26 (Homo sapiens) (Q9P289 2-416 limits assumed): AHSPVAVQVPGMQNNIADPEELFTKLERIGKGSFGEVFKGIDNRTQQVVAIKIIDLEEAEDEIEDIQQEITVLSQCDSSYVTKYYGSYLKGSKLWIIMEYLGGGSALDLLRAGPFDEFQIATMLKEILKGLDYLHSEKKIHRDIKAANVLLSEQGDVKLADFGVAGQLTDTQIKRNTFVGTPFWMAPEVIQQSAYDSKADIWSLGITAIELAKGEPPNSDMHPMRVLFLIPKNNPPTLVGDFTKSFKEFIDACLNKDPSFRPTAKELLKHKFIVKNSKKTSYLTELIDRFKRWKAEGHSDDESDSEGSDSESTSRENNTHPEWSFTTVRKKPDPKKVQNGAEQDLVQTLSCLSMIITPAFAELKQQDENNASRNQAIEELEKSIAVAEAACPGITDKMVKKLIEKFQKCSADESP
Chain of Ribosomal protein S6 kinase alpha-3 (Homo sapiens) (P51812 whole entry): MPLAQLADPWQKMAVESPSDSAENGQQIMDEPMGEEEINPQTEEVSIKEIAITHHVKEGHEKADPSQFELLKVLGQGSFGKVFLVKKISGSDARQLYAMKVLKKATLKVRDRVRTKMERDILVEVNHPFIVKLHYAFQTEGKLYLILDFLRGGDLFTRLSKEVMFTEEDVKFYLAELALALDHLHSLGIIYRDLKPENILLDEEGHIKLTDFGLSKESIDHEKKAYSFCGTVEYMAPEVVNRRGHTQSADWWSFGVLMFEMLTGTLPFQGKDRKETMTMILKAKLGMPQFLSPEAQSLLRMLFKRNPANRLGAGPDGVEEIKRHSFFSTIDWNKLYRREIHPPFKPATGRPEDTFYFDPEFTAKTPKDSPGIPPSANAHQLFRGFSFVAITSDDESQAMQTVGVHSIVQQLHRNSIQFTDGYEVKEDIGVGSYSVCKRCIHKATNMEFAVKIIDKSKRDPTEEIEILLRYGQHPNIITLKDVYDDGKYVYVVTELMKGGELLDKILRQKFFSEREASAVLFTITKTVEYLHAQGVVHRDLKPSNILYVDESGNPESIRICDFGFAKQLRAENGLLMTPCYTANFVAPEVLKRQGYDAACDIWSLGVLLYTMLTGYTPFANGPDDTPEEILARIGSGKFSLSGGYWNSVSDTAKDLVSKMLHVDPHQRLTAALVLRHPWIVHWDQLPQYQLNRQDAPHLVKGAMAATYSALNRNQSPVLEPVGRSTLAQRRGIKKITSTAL
Chain of Serine/threonine-protein kinase 38 (Homo sapiens) (Q15208 2-465 limits assumed): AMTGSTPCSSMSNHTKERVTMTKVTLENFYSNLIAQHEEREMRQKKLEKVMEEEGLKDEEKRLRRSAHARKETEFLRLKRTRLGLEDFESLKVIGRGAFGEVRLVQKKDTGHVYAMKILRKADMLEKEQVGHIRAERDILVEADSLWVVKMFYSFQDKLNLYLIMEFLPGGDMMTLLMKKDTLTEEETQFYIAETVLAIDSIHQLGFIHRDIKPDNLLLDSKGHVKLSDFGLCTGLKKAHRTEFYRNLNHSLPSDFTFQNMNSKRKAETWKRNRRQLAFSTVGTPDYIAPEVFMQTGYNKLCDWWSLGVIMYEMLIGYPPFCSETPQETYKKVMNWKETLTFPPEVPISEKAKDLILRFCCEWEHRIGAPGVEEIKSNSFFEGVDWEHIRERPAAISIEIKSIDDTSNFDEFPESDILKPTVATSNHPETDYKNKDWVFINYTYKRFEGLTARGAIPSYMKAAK
Chain of Dual specificity protein kinase CLK3 (Homo sapiens) (P49761 whole entry, looked up): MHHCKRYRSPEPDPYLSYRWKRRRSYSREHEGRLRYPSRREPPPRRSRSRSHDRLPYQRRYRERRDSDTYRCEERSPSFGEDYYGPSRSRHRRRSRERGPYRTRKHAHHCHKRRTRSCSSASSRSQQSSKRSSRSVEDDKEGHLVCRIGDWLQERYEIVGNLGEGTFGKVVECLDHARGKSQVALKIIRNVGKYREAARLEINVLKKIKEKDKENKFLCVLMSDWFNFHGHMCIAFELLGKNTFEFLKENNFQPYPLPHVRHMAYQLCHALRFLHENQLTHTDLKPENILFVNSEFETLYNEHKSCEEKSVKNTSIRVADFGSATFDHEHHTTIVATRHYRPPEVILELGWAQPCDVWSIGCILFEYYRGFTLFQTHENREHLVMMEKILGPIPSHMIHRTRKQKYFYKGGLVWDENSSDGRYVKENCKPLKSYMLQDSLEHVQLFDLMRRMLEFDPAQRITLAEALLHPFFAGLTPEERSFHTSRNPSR
Chain of Dual specificity protein kinase CLK1 (Homo sapiens) (P49759 whole entry, looked up, canonical isoform): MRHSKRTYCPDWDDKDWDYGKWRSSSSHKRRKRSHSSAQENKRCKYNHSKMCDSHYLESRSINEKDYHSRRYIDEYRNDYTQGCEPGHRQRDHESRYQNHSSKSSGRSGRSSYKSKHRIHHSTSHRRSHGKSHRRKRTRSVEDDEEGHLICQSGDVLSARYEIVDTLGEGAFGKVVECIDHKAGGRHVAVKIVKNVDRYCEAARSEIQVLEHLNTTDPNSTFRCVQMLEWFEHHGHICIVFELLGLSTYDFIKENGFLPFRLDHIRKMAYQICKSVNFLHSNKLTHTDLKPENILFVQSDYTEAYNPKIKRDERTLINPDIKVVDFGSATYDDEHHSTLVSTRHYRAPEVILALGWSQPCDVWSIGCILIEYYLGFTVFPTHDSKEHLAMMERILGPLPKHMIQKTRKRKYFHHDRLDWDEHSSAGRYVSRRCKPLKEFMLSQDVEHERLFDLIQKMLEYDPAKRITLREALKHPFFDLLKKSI
Chain of Dual specificity protein kinase CLK2 (Homo sapiens) (P49760 whole entry, looked up): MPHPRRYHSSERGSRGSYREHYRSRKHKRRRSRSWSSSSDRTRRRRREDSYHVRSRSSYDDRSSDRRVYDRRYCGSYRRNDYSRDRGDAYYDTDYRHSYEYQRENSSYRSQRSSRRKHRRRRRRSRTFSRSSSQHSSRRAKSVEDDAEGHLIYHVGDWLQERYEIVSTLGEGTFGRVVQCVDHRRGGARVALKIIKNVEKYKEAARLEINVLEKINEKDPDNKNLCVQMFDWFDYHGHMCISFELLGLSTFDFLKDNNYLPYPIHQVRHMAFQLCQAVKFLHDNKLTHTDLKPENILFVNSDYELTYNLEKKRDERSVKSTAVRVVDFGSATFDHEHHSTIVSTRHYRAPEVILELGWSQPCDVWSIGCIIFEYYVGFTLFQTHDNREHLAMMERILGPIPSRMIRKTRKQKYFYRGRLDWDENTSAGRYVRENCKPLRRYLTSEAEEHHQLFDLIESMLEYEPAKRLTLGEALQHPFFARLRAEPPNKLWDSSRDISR
Chain of Calcium/calmodulin-dependent protein kinase type II subunit delta (Homo sapiens) (Q13557 whole entry, canonical isoform): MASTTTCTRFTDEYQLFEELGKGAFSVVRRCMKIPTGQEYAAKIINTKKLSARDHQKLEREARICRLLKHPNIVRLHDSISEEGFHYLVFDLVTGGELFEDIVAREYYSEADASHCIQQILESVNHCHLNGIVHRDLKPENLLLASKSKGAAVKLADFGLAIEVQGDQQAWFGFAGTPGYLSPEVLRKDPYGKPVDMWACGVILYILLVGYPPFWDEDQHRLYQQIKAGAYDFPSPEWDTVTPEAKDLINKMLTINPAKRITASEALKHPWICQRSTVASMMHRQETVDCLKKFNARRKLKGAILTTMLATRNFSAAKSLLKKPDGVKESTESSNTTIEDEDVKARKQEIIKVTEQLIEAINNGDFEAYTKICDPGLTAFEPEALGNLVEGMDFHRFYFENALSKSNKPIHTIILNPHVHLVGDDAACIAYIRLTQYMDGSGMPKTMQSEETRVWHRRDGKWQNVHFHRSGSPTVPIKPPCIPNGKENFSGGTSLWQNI
Chain of Glycogen synthase kinase-3 beta (P49841 whole entry, looked up): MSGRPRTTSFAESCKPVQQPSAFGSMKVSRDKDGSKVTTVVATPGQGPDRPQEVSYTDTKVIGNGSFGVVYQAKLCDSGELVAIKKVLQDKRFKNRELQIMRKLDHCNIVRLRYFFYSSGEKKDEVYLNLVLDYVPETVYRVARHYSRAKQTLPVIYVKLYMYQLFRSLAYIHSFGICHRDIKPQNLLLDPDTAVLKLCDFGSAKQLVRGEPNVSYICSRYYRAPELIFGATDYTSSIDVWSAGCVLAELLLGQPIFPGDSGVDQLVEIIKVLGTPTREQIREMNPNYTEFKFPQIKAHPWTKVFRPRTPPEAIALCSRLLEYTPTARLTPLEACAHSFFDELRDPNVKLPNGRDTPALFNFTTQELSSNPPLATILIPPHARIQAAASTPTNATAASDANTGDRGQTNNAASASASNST
Chain of Calcium/calmodulin-dependent protein kinase type 1G (Homo sapiens) (Q96NX5 whole entry): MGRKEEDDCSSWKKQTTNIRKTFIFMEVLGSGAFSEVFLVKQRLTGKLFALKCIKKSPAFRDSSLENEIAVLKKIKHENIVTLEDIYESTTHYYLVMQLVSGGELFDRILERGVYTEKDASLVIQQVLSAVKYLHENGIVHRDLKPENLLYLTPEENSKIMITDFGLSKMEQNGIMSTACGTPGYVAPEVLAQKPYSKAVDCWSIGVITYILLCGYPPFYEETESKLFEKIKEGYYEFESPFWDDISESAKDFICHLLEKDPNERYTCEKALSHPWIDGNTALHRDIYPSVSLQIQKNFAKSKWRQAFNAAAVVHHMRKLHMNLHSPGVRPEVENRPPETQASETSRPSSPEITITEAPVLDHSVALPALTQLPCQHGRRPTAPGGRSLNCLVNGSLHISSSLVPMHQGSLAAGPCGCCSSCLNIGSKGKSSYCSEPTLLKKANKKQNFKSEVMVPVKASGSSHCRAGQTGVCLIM

Row | Structure (SMILES) | ΔTm [1] [°C] | ΔTm [2] [°C] | ΔTm [3] [°C] | ΔTm [4] [°C] | ΔTm [5] [°C] | ΔTm [6] [°C] | ΔTm [7] [°C] | ΔTm [8] [°C] | ΔTm [9] [°C] | ΔTm [10] [°C] | ΔTm [11] [°C] | ΔTm [12] [°C] | ΔTm [13] [°C] | ΔTm [14] [°C] | ΔTm [15] [°C] | ΔTm [16] [°C] | ΔTm [17] [°C] | ΔTm [18] [°C] | ΔTm [19] [°C] | ΔTm [20] [°C] | further results
1 | O=c1c(O)c(-c2ccc(O)c(O)c2)oc2cc(O)cc(O)c12 [QUERCETIN] | 1.8 | 1.7 | 3.4 | 2.7 | 7.8 | 2.4 | 3 | 8.1 | 4.9 | 3.2 | 5.5 | 7.7 | 3.2 | 4.8 | 6.6 | 8.1 | 2.7 | 2.4 | 5.7 | 2.9 | ΔTm [21]: 8.6 °C; ΔTm [22]: 1.9 °C; ΔTm [23]: 0.4 °C; ΔTm [24]: 5.4 °C; ΔTm [25]: 8.2 °C; ΔTm [26]: 4.1 °C
2 | C=CNC#N | 0.4 | 0.1 | 2.1 | 0.4 | 0.5 | 1.8 | 1.3 | 1.5 | 0.6 | 0.7 | 0.9 | 0.8 | 0.7 | 0.1 | 1 | 0.1 | 0.7 | 0.1 | 0.1 | 0.7 | ΔTm [21]: 0.3 °C; ΔTm [22]: 0.1 °C; ΔTm [23]: -1.1 °C; ΔTm [24]: 0.2 °C; ΔTm [25]: -0.9 °C; ΔTm [26]: 0.7 °C
3 | c1ccc(-c2n[nH]c3c2oc2ccccc23)cc1 | -0.2 | 2.2 | 0.1 | 0.3 | 0.8 | -0.4 | 0 | 3.4 | 1.7 | 1.4 | 2.5 | 1.8 | 0.8 | 0.7 | 1.1 | -0.5 | -0.2 | 1 | 1.6 | 0.6 | ΔTm [21]: 1.1 °C; ΔTm [22]: 0.6 °C; ΔTm [23]: -0.2 °C; ΔTm [24]: 0 °C; ΔTm [25]: 5.2 °C; ΔTm [26]: 0.3 °C
4 | O=C(O)c1cc(N(Cc2ccccc2O)Cc2cc(O)ccc2O)ccc1O [LAVENDUSTIN A] | 0 | 0.9 | 1.3 | 0.2 | -0.1 | 0.5 | 0.9 | 0.4 | 0.5 | 0.2 | 0.5 | 0.5 | 1.4 | 0.8 | 1.7 | 1.1 | 0.3 | 0.6 | -0.7 | 0.1 | ΔTm [21]: 1.1 °C; ΔTm [22]: 0.4 °C; ΔTm [23]: 0 °C; ΔTm [24]: 0.3 °C; ΔTm [25]: 0.4 °C; ΔTm [26]: 1.3 °C
5 | O=c1cc(N2CCOCC2)oc2c1ccc1ccccc12 | -0.4 | 2.3 | 0.6 | 0.1 | 1.1 | 0.1 | 0.2 | 0.2 | 0.8 | 0.1 | -0.3 | 0.8 | 0.4 | -0.3 | 0.3 | 1.7 | -0.2 | 0.6 | 0.2 | 0 | ΔTm [21]: 1 °C; ΔTm [22]: 0.2 °C; ΔTm [23]: 0.7 °C; ΔTm [24]: 0.1 °C; ΔTm [25]: 0.8 °C; ΔTm [26]: 0.3 °C
6 | Nc1cccc(-c2cc3c(Oc4cccc(O)c4)ncnc3[nH]2)c1 | 0.1 | 4.4 | 2.6 | 1 | 7.6 | 2.7 | 2.5 | 2.2 | 0.4 | 2.2 | 1.4 | 1.8 | 1.5 | 1.7 | 5.7 | 0.7 | 0.1 | 1.2 | 6.7 | 0.3 | ΔTm [21]: 0.8 °C; ΔTm [22]: 0.9 °C; ΔTm [23]: 0.6 °C; ΔTm [24]: 0.9 °C; ΔTm [25]: 4.3 °C; ΔTm [26]: 0.5 °C
7 | CCOc1cc2ncnc(Nc3cccc(Br)c3)c2cc1OCC | -1 | 0.2 | 1.1 | 0.4 | 2.8 | 0.8 | 0.5 | 0.8 | 1 | 0.7 | 2.7 | 2 | 1.2 | 2.6 | 0.2 | 0.2 | 0.6 | 0.6 | 7.9 | 0.7 | ΔTm [21]: 1.1 °C; ΔTm [22]: 0.2 °C; ΔTm [23]: 0.1 °C; ΔTm [24]: 0.3 °C; ΔTm [25]: 2.7 °C; ΔTm [26]: 0.7 °C
8 | Cc1cc(Nc2nc(-c3ccccc3)nc3ccccc23)n[nH]1 | 1.4 | 10.8 | 3 | 3.7 | 8.6 | 3.2 | 1.9 | 9.5 | 2.8 | 4 | 2 | 5.8 | 3.3 | 5.7 | 6.4 | 1.7 | 0.7 | 3.3 | 7.1 | 3.5 | ΔTm [21]: 0.7 °C; ΔTm [22]: 1.9 °C; ΔTm [23]: 0.9 °C; ΔTm [24]: 3.5 °C; ΔTm [25]: 12.2 °C; ΔTm [26]: 1.4 °C
